Legend:
[1] = biological target: T1, Cbl-b (Homo sapiens, UniProt Q13191); test: Cbl-b Degradation Method A (FACS, anti-Cbl-b antibody staining); assay type: cell-based; settings: Cbl-b-HiBit KI Jurkat Cells, incubated at least 20 hours; for DC50: half maximal degradation, read-out: Cbl-b Degredation Method A IC50; for Dmax: Jurkat, maximum degradation observed, read-out: Cbl-b Degredation Method A Dmax (%)
T1 construct: Cbl-b-HiBit KI Jurkat Cells were purchased from Promega; host or cells: Cbl-b-HiBiT knock-in Jurkat cells
Summary of the method: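 Readout is flow cytometry of fixed, permeabilized cells immunostained for Cbl-b (primary 1:200, AF488 secondary). Cells were Cbl-b-HiBit knock-in Jurkat, exposed to compound ≥20 h at 37 °C; half-maximal degradation concentration (DC50) and maximal degradation (Dmax) calculated relative to control.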

[2] = biological target: T1, Cbl-b; test: Cbl-b Degradation Method B (Nano-Glo HiBiT lytic detection); assay type: cell-based; settings: Cbl-b-HiBit KI Jurkat Cells, incubated at least 6-24 hours; for DC50: half maximal degradation, read-out: Cbl-b Degredation Method B IC50; for Dmax: maximum degradation observed, read-out: Cbl-b Degredation Method B Dmax (%)
Summary of the method: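 An 11-point, 3-fold compound dilution was applied for 6-24 hours to Jurkat cells carrying HiBiT-tagged endogenous Cbl-b. Lytic HiBiT luminescence quantified residual protein. Outputs are DC50 and Dmax relative to DMSO control.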

T1 sequence (Q13191 whole entry): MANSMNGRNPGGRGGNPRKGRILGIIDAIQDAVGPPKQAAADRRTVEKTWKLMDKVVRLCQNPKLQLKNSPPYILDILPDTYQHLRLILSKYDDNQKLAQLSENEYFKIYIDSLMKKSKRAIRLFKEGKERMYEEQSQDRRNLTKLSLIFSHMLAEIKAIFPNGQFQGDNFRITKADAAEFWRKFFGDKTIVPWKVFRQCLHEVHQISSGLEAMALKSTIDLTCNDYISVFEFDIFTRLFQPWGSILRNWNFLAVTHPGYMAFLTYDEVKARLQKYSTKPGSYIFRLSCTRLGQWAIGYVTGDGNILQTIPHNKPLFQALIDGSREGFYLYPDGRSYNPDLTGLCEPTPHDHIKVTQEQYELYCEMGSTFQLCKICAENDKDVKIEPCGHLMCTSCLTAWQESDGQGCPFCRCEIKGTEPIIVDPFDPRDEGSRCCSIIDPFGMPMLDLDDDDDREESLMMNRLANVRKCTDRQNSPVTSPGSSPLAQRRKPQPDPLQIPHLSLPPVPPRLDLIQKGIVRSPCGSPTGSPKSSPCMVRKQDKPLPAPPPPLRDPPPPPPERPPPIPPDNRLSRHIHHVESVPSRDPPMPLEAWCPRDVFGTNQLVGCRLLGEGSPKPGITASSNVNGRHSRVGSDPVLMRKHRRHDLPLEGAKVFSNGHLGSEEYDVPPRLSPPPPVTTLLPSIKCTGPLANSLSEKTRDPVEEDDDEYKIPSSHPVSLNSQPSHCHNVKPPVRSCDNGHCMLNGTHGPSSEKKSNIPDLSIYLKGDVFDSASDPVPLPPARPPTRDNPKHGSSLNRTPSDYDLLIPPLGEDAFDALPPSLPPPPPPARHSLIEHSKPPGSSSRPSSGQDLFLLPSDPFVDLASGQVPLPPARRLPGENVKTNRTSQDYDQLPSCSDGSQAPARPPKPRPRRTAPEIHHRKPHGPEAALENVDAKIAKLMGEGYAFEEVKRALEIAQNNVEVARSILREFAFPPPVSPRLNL

| Compound | DC50 [1] | DC50 [2] | Dmax [1] | Dmax [2] |
| --- | --- | --- | --- | --- |
| Cn1cnnc1CC1(c2cccc(N3Cc4c(cc(CN5CCC[C@H](CN6CCC7(CC6)CCN(c6ccc8c(c6)C(=O)N(C6CCC(=O)NC6=O)C8=O)CC7)C5)cc4C(F)(F)F)C3=O)c2)COC1 (stereo partly drawn) [Example 98, 2-(2,6-dioxopiperidin-3-yl)-5-(9-{[(3R)-1-{[2-(3-{3-[(4-methyl-4H-1,2,4-triazol-3-yl)methyl]oxetan-3-yl}phenyl)-3-oxo-7-(trifluoromethyl)-2,3-dihydro-1H-isoindol-5-yl]methyl}piperidin-3-yl]methyl}-3,9-diazaspiro[5.5]undecan-3-yl)-2,3-dihydro-1H-isoindole-1,3-dione] | > 500 nM | > 500 nM | – | – |
| Cn1cnnc1CC1(c2cccc(N3Cc4c(cc(CN5CCC(CC6CN(c7cccc8c7C(=O)N(C7CCC(=O)NC7=O)C8=O)C6)CC5)cc4C(F)(F)F)C3=O)c2)COC1 (stereo not shown) [Example 99, 2-(2,6-dioxopiperidin-3-yl)-4-{3-[(1-{[2-(3-{3-[(4-methyl-4H-1,2,4-triazol-3-yl)methyl]oxetan-3-yl}phenyl)-3-oxo-7-(trifluoromethyl)-2,3-dihydro-1H-isoindol-5-yl]methyl}piperidin-4-yl)methyl]azetidin-1-yl}-2,3-dihydro-1H-isoindole-1,3-dione] | > 500 nM | > 500 nM | – | – |
| Cn1cnnc1CC1(c2cccc(N3Cc4c(cc(CN5CCC(N6CCC7(CCN(c8ccc9c(c8)C(=O)N(C8CCC(=O)NC8=O)C9=O)CC7)CC6)CC5)cc4C(F)(F)F)C3=O)c2)COC1 (stereo not shown) [Example 100, 2-(2,6-dioxopiperidin-3-yl)-5-[9-(1-{[2-(3-{3-[(4-methyl-4H-1,2,4-triazol-3-yl)methyl]oxetan-3-yl}phenyl)-3-oxo-7-(trifluoromethyl)-2,3-dihydro-1H-isoindol-5-yl]methyl}piperidin-4-yl)-3,9-diazaspiro[5.5]undecan-3-yl]-2,3-dihydro-1H-isoindole-1,3-dione] | > 500 nM | > 500 nM | < 35% | – |
| Cn1cnnc1CC1(c2cccc(N3Cc4c(cc(CN5CCC[C@H](CN6CCC(CN7CCN(c8ccc9c(c8)C(=O)N(C8CCC(=O)NC8=O)C9=O)CC7)CC6)C5)cc4C(F)(F)F)C3=O)c2)COC1 (stereo partly drawn) [Example 101, 2-(2,6-dioxopiperidin-3-yl)-5-{4-[(1-{[(3R)-1-{[2-(3-{3-[(4-methyl-4H-1,2,4-triazol-3-yl)methyl]oxetan-3-yl}phenyl)-3-oxo-7-(trifluoromethyl)-2,3-dihydro-1H-isoindol-5-yl]methyl}piperidin-3-yl]methyl}piperidin-4-yl)methyl]piperazin-1-yl}-2,3-dihydro-1H-isoindole-1,3-dione] | > 500 nM | > 500 nM | – | – |
| CC1CC(N2CCC(COCCOc3ccc4c(c3)C(=O)N(C3CCC(=O)NC3=O)C4=O)CC2)CN(Cc2cc3c(c(C(F)(F)F)c2)CN(c2cccc(C4(Cc5nncn5C)COC4)c2)C3=O)C1 (stereo not shown) [Example 102, 2-(2,6-dioxopiperidin-3-yl)-5-{2-[(5′-methyl-1′-{[2-(3-{3-[(4-methyl-4H-1,2,4-triazol-3-yl)methyl]oxetan-3-yl}phenyl)-3-oxo-7-(trifluoromethyl)-2,3-dihydro-1H-isoindol-5-yl]methyl}-[1,3′-bipiperidin]-4-yl)methoxy]ethoxy}-2,3-dihydro-1H-isoindole-1,3-dione] | > 500 nM | > 500 nM | – | – |
| Cn1cnnc1CC1(c2cccc(N3Cc4c(cc(CN5CCC(N6CCN(CC7CCN(c8ccc9c(c8)C(=O)N(C8CCC(=O)NC8=O)C9=O)CC7)CC6)CC5)cc4C(F)(F)F)C3=O)c2)COC1 (stereo not shown) [Example 103, 2-(2,6-dioxopiperidin-3-yl)-5-(4-{[4-(1-{[2-(3-{3-[(4-methyl-4H-1,2,4-triazol-3-yl)methyl]oxetan-3-yl}phenyl)-3-oxo-7-(trifluoromethyl)-2,3-dihydro-1H-isoindol-5-yl]methyl}piperidin-4-yl)piperazin-1-yl]methyl}piperidin-1-yl)-2,3-dihydro-1H-isoindole-1,3-dione] | > 500 nM | > 500 nM | 35 to 70% | – |
| Cn1cnnc1CC1(c2cccc(N3Cc4c(cc(CN5CCN(C6CCN(CC7CCN(c8ccc9c(c8)C(=O)N(C8CCC(=O)NC8=O)C9=O)CC7)CC6)CC5)cc4C(F)(F)F)C3=O)c2)COC1 (stereo not shown) [Example 104, 2-(2,6-dioxopiperidin-3-yl)-5-(4-{[4-(4-{[2-(3-{3-[(4-methyl-4H-1,2,4-triazol-3-yl)methyl]oxetan-3-yl}phenyl)-3-oxo-7-(trifluoromethyl)-2,3-dihydro-1H-isoindol-5-yl]methyl}piperazin-1-yl)piperidin-1-yl]methyl}piperidin-1-yl)-2,3-dihydro-1H-isoindole-1,3-dione] | 50 to 500 nM | > 500 nM | – | – |
| Cn1cnnc1CC1(c2cccc(N3Cc4c(cc(CN5CCN(C6CCC7(CC6)CCN(c6ccc8c(c6)C(=O)N(C6CCC(=O)NC6=O)C8=O)CC7)CC5)cc4C(F)(F)F)C3=O)c2)COC1 (stereo not shown) [Example 105, 2-(2,6-dioxopiperidin-3-yl)-5-[9-(4-{[2-(3-{3-[(4-methyl-4H-1,2,4-triazol-3-yl)methyl]oxetan-3-yl}phenyl)-3-oxo-7-(trifluoromethyl)-2,3-dihydro-1H-isoindol-5-yl]methyl}piperazin-1-yl)-3-azaspiro[5.5]undecan-3-yl]-2,3-dihydro-1H-isoindole-1,3-dione] | > 500 nM | > 500 nM | – | – |
| Cn1cnnc1CC1(c2cccc(N3Cc4c(cc(CN5CCC(N6CC7(CN(c8ccc9c(c8)C(=O)N(C8CCC(=O)NC8=O)C9=O)C7)C6)CC5)cc4C(F)(F)F)C3=O)c2)COC1 (stereo not shown) [Example 106, 2-(2,6-dioxopiperidin-3-yl)-5-[6-(1-{[2-(3-{3-[(4-methyl-4H-1,2,4-triazol-3-yl)methyl]oxetan-3-yl}phenyl)-3-oxo-7-(trifluoromethyl)-2,3-dihydro-1H-isoindol-5-yl]methyl}piperidin-4-yl)-2,6-diazaspiro[3.3]heptan-2-yl]-2,3-dihydro-1H-isoindole-1,3-dione] | 50 to 500 nM | > 500 nM | > 70% | – |
| Cn1cnnc1CC1(c2cccc(N3Cc4c(cc(CN5CCN(C6CC7(C6)CN(c6ccc8c(c6)C(=O)N(C6CCC(=O)NC6=O)C8=O)C7)CC5)cc4C(F)(F)F)C3=O)c2)COC1 (stereo not shown) [Example 107, 2-(2,6-dioxopiperidin-3-yl)-5-[6-(4-{[2-(3-{3-[(4-methyl-4H-1,2,4-triazol-3-yl)methyl]oxetan-3-yl}phenyl)-3-oxo-7-(trifluoromethyl)-2,3-dihydro-1H-isoindol-5-yl]methyl}piperazin-1-yl)-2-azaspiro[3.3]heptan-2-yl]-2,3-dihydro-1H-isoindole-1,3-dione] | 5 to 50 nM | > 500 nM | < 35% | – |
| Cn1cnnc1CC1(c2cccc(N3Cc4c(cc(CN5CCCC(N6CC7(CCN(c8ccc9c(c8)C(=O)N(C8CCC(=O)NC8=O)C9=O)CC7)C6)C5)cc4C(F)(F)F)C3=O)c2)COC1 (stereo not shown) [Example 108, 2-(2,6-dioxopiperidin-3-yl)-5-[2-(1-{[2-(3-{3-[(4-methyl-4H-1,2,4-triazol-3-yl)methyl]oxetan-3-yl}phenyl)-3-oxo-7-(trifluoromethyl)-2,3-dihydro-1H-isoindol-5-yl]methyl}piperidin-3-yl)-2,7-diazaspiro[3.5]nonan-7-yl]-2,3-dihydro-1H-isoindole-1,3-dione] | 5 to 50 nM | 5 to 50 nM | < 35% | 35 to 70% |
| Cn1cnnc1CC1(c2cccc(N3Cc4c(cc(CN5CCC[C@@H](CN6CCC(CC7CCN(c8ccc9c(c8)C(=O)N(C8CCC(=O)NC8=O)C9=O)CC7)CC6)C5)cc4C(F)(F)F)C3=O)c2)COC1 (stereo partly drawn) [Example 110, 2-(2,6-dioxopiperidin-3-yl)-5-{4-[(1-{[(3S)-1-{[2-(3-{3-[(4-methyl-4H-1,2,4-triazol-3-yl)methyl]oxetan-3-yl}phenyl)-3-oxo-7-(trifluoromethyl)-2,3-dihydro-1H-isoindol-5-yl]methyl}piperidin-3-yl]methyl}piperidin-4-yl)methyl]piperidin-1-yl}-2,3-dihydro-1H-isoindole-1,3-dione] | 5 to 50 nM | > 500 nM | < 35% | – |
| Cn1cnnc1CC1(c2cccc(N3Cc4c(cc(CN5CCC[C@H](CN6CCC(CC7CCN(c8ccc9c(c8)C(=O)N(C8CCC(=O)NC8=O)C9=O)CC7)CC6)C5)cc4C(F)(F)F)C3=O)c2)COC1 (stereo partly drawn) [Example 111, 2-(2,6-dioxopiperidin-3-yl)-5-{4-[(1-{[(3R)-1-{[2-(3-{3-[(4-methyl-4H-1,2,4-triazol-3-yl)methyl]oxetan-3-yl}phenyl)-3-oxo-7-(trifluoromethyl)-2,3-dihydro-1H-isoindol-5-yl]methyl}piperidin-3-yl]methyl}piperidin-4-yl)methyl]piperidin-1-yl}-2,3-dihydro-1H-isoindole-1,3-dione] | 50 to 500 nM | > 500 nM | – | – |
| Cn1cnnc1CC1(c2cccc(N3Cc4c(cc(CN5CCN(C[C@H]6CC[C@H](OC7CCN(c8ccc9c(n8)CN(C8CCC(=O)NC8=O)C9=O)CC7)CC6)CC5)cc4C(F)(F)F)C3=O)c2)COC1 (stereo partly shown) [Example 112, 3-[5-oxo-2-(4-{[(1r,4r)-4-[(4-{[2-(3-{3-[(4-methyl-4H-1,2,4-triazol-3-yl)methyl]oxetan-3-yl}phenyl)-3-oxo-7-(trifluoromethyl)-2,3-dihydro-1H-isoindol-5-yl]methyl}piperazin-1-yl)methyl]cyclohexyl]oxy}piperidin-1-yl)-5H,6H,7H-pyrrolo[3,4-b]pyridin-6-yl]piperidine-2,6-dione] | 5 to 50 nM | < 5 nM | 35 to 70% | 35 to 70% |
